Test results reported in US10556866B2, “ROR gamma (RORγ) modulators” (LEAD PHARMA HOLDING B.V., priority 2015, dated 2020).

These molecules were tested against T1, RORγ (Homo sapiens, UniProt P51449) (assay: RORγ GAL4 reporter gene assay (luciferase readout)). Conditions: inhibition of RORγ (GAL4-RORγ-LBD) in 293FT cells, luciferase signal; read-out: mean pIC50 (converted).
T1 construct: expressed in transfected cells; host or cells: 293FT cells (Invitrogen), expression vector pFN26A (Promega)
T1 sequence (P51449 269-508 limits assumed): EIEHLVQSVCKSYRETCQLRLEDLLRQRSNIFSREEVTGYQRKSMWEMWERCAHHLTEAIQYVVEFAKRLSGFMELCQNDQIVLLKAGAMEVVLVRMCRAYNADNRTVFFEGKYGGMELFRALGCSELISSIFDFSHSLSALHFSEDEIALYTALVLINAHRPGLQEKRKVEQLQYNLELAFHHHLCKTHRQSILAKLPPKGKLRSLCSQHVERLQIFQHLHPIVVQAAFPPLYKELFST
Assay type: cell-based
Description: Example inhibitors 1-38 were tested for their ability to inhibit RORγ activity in a RORγ GAL4 reporter gene assay. The assay procedure and results are described below.
A GAL4 one-hybrid reporter system employing luciferase readout was established to determine inhibition of RORγ in 293FT cells. The RORγ ligand-binding domain (LBD) was fused to the yeast GAL4 DNA binding domain (DBD) and placed under the control of the human cytomegalovirus (CMV) immediate early promoter, using expression vector pFN26A (Promega) and standard recombinant DNA cloning methods. To serve as a control in the assay, a similar vector was generated in which the GAL4-DBD was fused to Herpes simplex virus protein 16 (VP16), a constitutive transcriptional activator.
To monitor the inhibitory effect of compounds on RORγ, a transcriptional reporter construct was used. The pGL4.35 vector (Promega) contains nine copies of the GAL4 Upstream Activator Sequence (UAS). This sequence drives the transcription of the luciferase reporter gene luc2P in response to binding of a fusion protein containing the GAL4 DNA binding domain, as for example expressed by the GAL4-RORγ-LBD and GAL4-VP16 expression vectors described above. To allow a GAL4 fusion protein to drive the expression of the luciferase reporter, the pGL4.35 expression vector and the appropriate GAL4 fusion protein expression vector were bulk transfected in the 293FT cells using standard transfection techniques.
The day after transfection, cells were plated into 96 well plates, test compound was added and the plates were incubated overnight. Subsequently, the firefly luciferase activity was quantified using luciferase detection reagent and luminescence readout.
293FT cells (Invitrogen) were transfected with a GAL4 fusion protein expression vector (as described above) and the transcriptional reporter construct (pGL4.35, Promega). 60 μL of TransIT-293 transfection reagent (Mirus Bio) was added drop wise to 1500 μl Opti-MEM I Reduced Serum Medium (Invitrogen) and incubated at RT (RT) for 5 to 20 minutes. 1500 μL of this reagent mixture was added to 5 μg of GAL4 fusion protein expression vector and 5 μg of the transcriptional reporter construct, and incubated at RT for 20 minutes.
To harvest 293FT cells from a T75 flask, first the culture medium was taken off the cells. Subsequently, the cells were washed with Phosphate Buffered Saline (PBS) (Lonza), after which the PBS was removed. To dissociate the cells, 1 ml of TrypLE Express (Invitrogen) was added to the flask, followed by incubation at RT until the cells visually started to detach. Cells were collected in 5 mL of assay medium (DMEM culture medium (Lonza), 10% dialyzed FBS (Invitrogen) and Pen/Strep (Lonza)) to achieve a single cell suspension. 10×10^6 cells were spun down and re-suspended in 10 mL of assay medium. Subsequently, the cell suspension was added to the transfection mix tube, and then transferred as a whole to a T75 flask (Greiner), followed by overnight (16-24 hours) incubation at 37° C. and 5% CO2.
For compound screening, the cells were harvested (as described above) and counted. 13×10^6 cells were spun down, the supernatant was aspirated and the cells were re-suspended in 17.3 mL of assay medium obtaining a cell suspension of 0.75×10^6 cells/mL. 80 μL of cell suspension (60,000 cells) was plated per well into a white, flat bottom, tissue culture treated, 96 well screening plates (Greiner).
Test compounds were diluted, starting from a 10 mM dimethylsulfoxide (DMSO) stock solution, to serial dilutions in DMSO at 500× the final test concentration. Subsequently, these solutions were diluted to 5× the final test concentration in two 10-fold-dilution steps in assay medium. The final DMSO concentration of the 5× test compound solution was 1%. 20 μL of the 5× test compound solution was added to each test well of the 96 well plate previously plated with 80 μl cell suspension, resulting in the final test concentration with 0.2% DMSO. […]

IC50 [nM]	SMILES
< 10000	CCS(=O)(=O)c1ccc(CNC(=O)c2ccc(C(O)(C(F)(F)F)C(F)(F)F)cc2)cc1 [Example 19, N-[(4-ethylsulfonylphenyl)methyl]-4-[2,2,2-trifluoro-1-hydroxy-1-(trifluoromethyl)ethyl]benzamide]
> 10000	CC(C)(O)c1ccc(C(=O)NCc2ccc(S(=O)(=O)CC3CC3)cc2)cc1 [Example 3, N-[[4-(cyclopropylmethylsulfonyl)phenyl]methyl]-4-(1-hydroxy-1-methyl-ethyl)benzamide]
≤ 1000	CCOC(c1ccc(C(=O)NCc2ccc(S(=O)(=O)NC3CC3)cc2)cc1)(C(F)(F)F)C(F)(F)F [Example 31, N-[[4-(cyclopropylsulfamoyl)phenyl]methyl]-4-[1-ethoxy-2,2,2-trifluoro-1-(trifluoromethyl)ethyl]benzamide]
≤ 100	CC(C)(C)CC(O)(c1ccc(C(=O)NCc2ccc(S(=O)(=O)CC3CC3)cc2)cc1)C(F)(F)F (stereo not drawn) [Example 9, N-[[4-(cyclopropylmethylsulfonyl)phenyl]methyl]-4-[1-hydroxy-3,3-dimethyl-1-(trifluoromethyl)butyl]benzamide]
≤ 100	COC(c1ccc(C(=O)NCc2ccc(S(=O)(=O)CC3CC3)cc2C)cc1)(C(F)(F)F)C(F)(F)F [Example 28, N-[[4-(cyclopropylmethylsulfonyl)-2-methyl-phenyl]methyl]-4-[2,2,2-trifluoro-1-methoxy-1-(trifluoromethyl)ethyl]benzamide]
≤ 100	O=C(NCc1ccc(S(=O)(=O)CC2CC2)cc1)c1ccc(C(O)(Cc2ccccc2)C(F)(F)F)cc1 (stereo not drawn) [Example 14, 4-(1-benzyl-2,2,2-trifluoro-1-hydroxy-ethyl)-N-[[4-(cyclopropylmethylsulfonyl)phenyl]methyl]benzamide]
≤ 1000	C[C@H](NC(=O)c1ccc(C(O)(C(F)(F)F)C(F)(F)F)cc1)c1ccc(S(=O)(=O)CC2CC2)cc1 [Example 35, N-[(1S)-1-[4-(cyclopropylmethylsulfonyl)phenyl]ethyl]-4-[2,2,2-trifluoro-1-hydroxy-1-(trifluoromethyl)ethyl]benzamide]
≤ 100	CCOC(c1ccc(C(=O)NCc2ccc(S(=O)(=O)CC3CC3)cc2)cc1)(C(F)(F)F)C(F)(F)F [Example 23, N-[[4-(cyclopropylmethylsulfonyl)phenyl]methyl]-4-[1-ethoxy-2,2,2-trifluoro-1-(trifluoromethyl)ethyl]benzamide]
≤ 100	COC(c1ccc(C(=O)NCc2ccc(S(=O)(=O)CC3CC3)cc2)cc1)(C(F)(F)F)C(F)(F)F [Example 22, N-[[4-(cyclopropylmethylsulfonyl)phenyl]methyl]-4-[2,2,2-trifluoro-1-methoxy-1-(trifluoromethyl)ethyl]benzamide]
≤ 1000	O=C(NCc1ccc(S(=O)(=O)CC2CC2)cc1)c1ccc(C(O)(c2ccccc2)C(F)(F)F)cc1 (stereo not drawn) [Example 13, N-[[4-(cyclopropylmethylsulfonyl)phenyl]methyl]-4-(2,2,2-trifluoro-1-hydroxy-1-phenyl-ethyl)benzamide]
≤ 1000	Cc1cc(C(O)(c2ccc(C(=O)NCc3ccc(S(=O)(=O)CC4CC4)cc3)cc2)C2CC2)no1 (stereo not drawn) [Example 37, 4-[cyclopropyl-hydroxy-(5-methylisoxazol-3-yl)methyl]-N-[[4-(cyclopropylmethylsulfonyl)phenyl]methyl]benzamide]
≤ 1000	O=C(NCc1ccc(S(=O)(=O)NC2CC2)cc1)c1ccc(C(O)(C(F)(F)F)C(F)(F)F)cc1 [Example 21, N-[[4-(cyclopropylsulfamoyl)phenyl]methyl]-4-[2,2,2-trifluoro-1-hydroxy-1-(trifluoromethyl)ethyl]benzamide]
≤ 100	Cc1cc(C(O)(c2ccc(C(=O)NCc3ccc(S(=O)(=O)CC4CC4)cc3)cc2)C(C)(C)C)no1 (stereo not drawn) [Example 38, N-[(4-(cyclopropylmethylsulfonyl)phenyl)methyl]-4-[1-hydroxy-2,2-dimethyl-1-(5-methylisoxazol-3-yl)propyl]benzamide]
≤ 100	CCOC(c1ccc(C(=O)NCc2ccc(S(=O)(=O)CC3CC3)cc2C)cc1)(C(F)(F)F)C(F)(F)F [Example 29, N-[[4-(cyclopropylmethylsulfonyl)-2-methyl-phenyl]methyl]-4-[1-ethoxy-2,2,2-trifluoro-1-(trifluoromethyl)ethyl]benzamide]
≤ 100	CCCC(O)(c1ccc(C(=O)NCc2ccc(S(=O)(=O)CC3CC3)cc2)cc1)C(F)(F)F (stereo not drawn) [Example 6, N-[[4-(cyclopropylmethylsulfonyl)phenyl]methyl]-4-[1-hydroxy-1-(trifluoromethyl)butyl]benzamide]
≤ 100	Cc1cc(C(O)(c2ccc(C(=O)NCc3ccc(S(=O)(=O)CC4CC4)cc3)cc2)C(C)C)no1 (stereo not drawn) [Example 36, N-[[4-(cyclopropylmethylsulfonyl)phenyl]methyl]-4-[1-hydroxy-2-methyl-1-(5-methylisoxazol-3-yl)propyl]benzamide]
≤ 100	CCC(O)(c1ccc(C(=O)NCc2ccc(S(=O)(=O)CC3CC3)cc2)cc1)C(F)(F)F (racemic) [Example 1, N-[[4-(cyclopropylmethylsulfonyl)phenyl]methyl]-4-[1-hydroxy-1-(trifluoromethyl)propyl]benzamide]
≤ 1000	CCCCC(O)(c1ccc(C(=O)NCc2ccc(S(=O)(=O)NC3CC3)cc2)cc1)C(F)(F)F (stereo not drawn) [Example 20, N-[[4-(cyclopropylsulfamoyl)phenyl]methyl]-4-[1-hydroxy-1-(trifluoromethyl)pentyl]benzamide]
≤ 100	CCC(O)(c1ccc(C(=O)NCc2ccc(S(=O)(=O)CC3CC3)cc2)cc1)C(F)(F)F (racemic) [(+)-1, (+)-N-[[4-(cyclopropylmethylsulfonyl)phenyl]methyl]-4-[1-hydroxy-1-(trifluoromethyl)propyl]benzamide]
≤ 100	COC(CC(C)(C)C)(c1ccc(C(=O)NCc2ccc(S(=O)(=O)CC3CC3)cc2)cc1)C(F)(F)F (stereo not drawn) [Example 33, N-[[4-(cyclopropylmethylsulfonyl)phenyl]methyl]-4-[1-methoxy-3,3-dimethyl-1-(trifluoromethyl)butyl]benzamide]
≤ 100	CC(C)OC(c1ccc(C(=O)NCc2ccc(S(=O)(=O)CC3CC3)cc2)cc1)(C(F)(F)F)C(F)(F)F [Example 26, N-[[4-(cyclopropylmethylsulfonyl)phenyl]methyl]-4-[2,2,2-trifluoro-1-isopropoxy-1-(trifluoromethyl)ethyl]benzamide]
≤ 100	O=C(NCc1ccc(S(=O)(=O)CC2CC2)cc1)c1ccc(C(O)(C2CCCC2)C(F)(F)F)cc1 (stereo not drawn) [Example 12, 4-(1-cyclopentyl-2,2,2-trifluoro-1-hydroxy-ethyl)-N-[[4-(cyclopropylmethylsulfonyl)phenyl]methyl]benzamide]
≤ 100	O=C(NCc1ccc(S(=O)(=O)CC2CC2)cc1)c1ccc(C(O)(C2CC2)C(F)(F)F)cc1 (stereo not drawn) [Example 11, N-[[4-(cyclopropylmethylsulfonyl)phenyl]methyl]-4-(1-cyclopropyl-2,2,2-trifluoro-1-hydroxy-ethyl)benzamide]

SMILES	IC50 [nM]
CCCCOC(c1ccc(C(=O)NCc2ccc(S(=O)(=O)CC3CC3)cc2)cc1)(C(F)(F)F)C(F)(F)F [Example 25, 4-[1-butoxy-2,2,2-trifluoro-1-(trifluoromethyl)ethyl]-N-[[4-(cyclopropylmethylsulfonyl)phenyl]methyl]benzamide]	≤ 100
